Reference: EP2698383B1, “Detection of synthetic Cannabinoids” (priority 2012, dated 2014)
Where two headings read alike, the source gives them in different places.

What was measured:
Assay type in all cases: binding, sheep
Antibody 4.1 = system: Antibody 4.1
Procedure: (§1) The wells of an enhanced binding 96 well polystyrene microtiter plate were coated with IgG fraction of antiserum (Antibody 4.1 or antibody 4.2) raised to Immunogen 4 in separate host animals, diluted in 10mM Tris, pH8.5 (125µl/well). The appropriate antibody coating dilution was determined using standard ELISA checkerboard techniques. The plate was incubated overnight at 4°C, washed 4 times over 10 minutes with Tris buffered saline containing Tween 20 (TBST) and tapped dry.
(§2) Standard solutions of CP47,497 -C8 were prepared in TBST at 0, 2.5, 5, 10, 20, 40, 80 and 160ng/ml for Antibody 4.1, and at 0, 5, 10, 20, 40, 80, 160 and 320ng/ml for Antibody 4.2, and 50µl of each was added to the appropriate wells. 75µl of conjugate (Hapten 1-HRP - tracer 1 - see Figure 4) diluted in Tris buffer (pH 7.2) containing EDTA, D-mannitol, sucrose, thimerosal and BSA, was added to each of the wells. The appropriate dilution of conjugate was also determined using standard ELISA checkerboard techniques. The plate was incubated at 25°C for 1 hour. Excess unbound conjugate was removed by washing 6 times over a 10 minute period with TBST. 125µl of tetramethylbenzidine (TMB) substrate solution was added to each well of the plate that was then incubated for 20 minutes in the dark at room temperature. The reaction was terminated by addition of 125µl 0.2M H2SO4 to each well. The absorbance was then measured at 450nm using a microtiter plate reader.
(§3) In order to determine the specificity of the competitive ELISAs, standard solutions of a range of structurally similar compounds were prepared in TBST. Using the calibration curves generated and employing a single level of cross reactants (100ng/ml), these were used to determine the cross-reactivity of each immunoassay with these substances. The results of this study are presented in Table 2, as %B/B0, employing antisera raised against Immunogen 2b (C8), tracer 1 (C7) and (±)-CP-47,497 (C8 homologue) as standard.

Antibody 4.2 = system: Antibody 4.2
Procedure: as §1, §2, §3

[1] = system: antibodies raised against immunogen 2b; experiment: Competitive ELISA cross-reactivity, for both antibodies; conditions: cross reactants 100ng/ml; tracer 1 (C7); (±)-CP-47,497 (C8 homologue) as standard
Procedure: as §1, §2, §3

[2] = Cross-reactants at 100ng/ml, tracer 1 (C7), (±)-CP-47,497 (C8 homologue) as standard
[3] = standard 5 ng/ml, tracer 1 (C7)
[4] = standard 10 ng/ml, tracer 1 (C7)
[5] = standard 20 ng/ml, tracer 1 (C7)
[6] = standard 40 ng/ml, tracer 1 (C7)
[7] = standard 80 ng/ml, tracer 1 (C7)
[8] = standard 160 ng/ml, tracer 1 (C7)
[9] = standard concentration which produces 50% B/B0, tracer 1 (C7)

Compound | %B/B0 (Antibody 4.1; [2]) [%] | %B/B0 (Antibody 4.2; [2]) [%] | %B/B0 [1] | other results
(-)-11-nor-9-Carboxy-delta9-THC |  |  |  | %B/B0 (Antibody 4.1): 95.23%; %B/B0 (Antibody 4.2): 94.38%
CCCCCCC(C)(C)c1cc(O)c2c(c1)OC(C)(C)[C@@H]1CC=C(CO)C[C@@H]21 [HU-210] | 96.01 | 92.94 | greater than 80% | 
CCCCCCC(C)(C)c1ccc([C@H]2CCC[C@@H](O)C2)c(O)c1 (racemic) [(±)-CP-47,497 (C7 homologue)] | 37.14 | 48.85 | less than 50% | 
CCCCCCC(C)(C)C1=CC(=O)C(C2CCCC(O)C2)=CC1=O (racemic) [(±)-CP-47,497 (C7 para quinone analogue)] | 82.66 | 89.82 | greater than 80% | 
CCCCCCC(C)(C)c1cc(O)c2c(c1)OC(C)(C)[C@H]1CC=C(CO)C[C@H]21 [HU-211 (Dexanabinol), Dexanabinol] | 96.76 | 95.84 | greater than 80% | 
(+)-CP 55,940 |  |  | greater than 80% | %B/B0 (Antibody 4.1): 95.98%; %B/B0 (Antibody 4.2): 96.91%
CCCCCCCC(C)(C)c1ccc(C2CCCC(O)C2)c(O)c1 (racemic) [(±)-CP-47,497 (C8 homologue)] | 36.52 | 49.65 | less than 50% | %B/B0 (Antibody 4.1; standard 2.5 ng/ml, tracer 1 (C7)): 82%; %B/B0 (Antibody 4.1; [3]): 72%; %B/B0 (Antibody 4.1; [4]): 60%; %B/B0 (Antibody 4.1; [5]): 51%; %B/B0 (Antibody 4.1; [6]): 43%; %B/B0 (Antibody 4.1; [7]): 38%; %B/B0 (Antibody 4.1; [8]): 34%; IC50 (Antibody 4.1; [9]): 0.020922 µg/mL; %B/B0 (Antibody 4.2; [3]): 88%; %B/B0 (Antibody 4.2; [4]): 82%; %B/B0 (Antibody 4.2; [5]): 72%; %B/B0 (Antibody 4.2; [6]): 63%; %B/B0 (Antibody 4.2; [7]): 52%; %B/B0 (Antibody 4.2; [8]): 44%; %B/B0 (Antibody 4.2; standard 320 ng/ml, tracer 1 (C7)): 37%; IC50 (Antibody 4.2; [9]): 0.095992 µg/mL
(-)-CP 55,940 |  |  | greater than 80% | %B/B0 (Antibody 4.1): 91.26%; %B/B0 (Antibody 4.2): 97.23%
CCCCCCC(C)(C)c1cc(OC)c([C@@H]2C=C(CO)[C@@H]3C[C@H]2C3(C)C)c(OC)c1 [HU-308] | 98.37 | 94.81 |  | 
CCCCCc1cc(O)c2c(c1)OC(C)(C)[C@@H]1CCC(C)=C[C@@H]21 [Delta 9 THC] | 96.44 | 94.09 |  | 
CCCCCCC(C)(C)c1ccc([C@@H]2C[C@H](O)CC[C@H]2CCCO)c(O)c1 (racemic) [(+-)-CP 55,940] | 93.65 | 97.34 | greater than 80% | 
